The values below come from patent US7897620B2, “Methods of using anti-inflammatory compounds” (Cambridge Enterprise Limited, priority 2007, dated 2011).

A short description of data set [1]: Identification of the primary metabolites in pooled 24 h urine (LC-MS-MS full scan). The data set is classed as in vivo. The following applies: rat, single oral dose 3 mg/kg in 1% CMC, qualitative. How it is done: Urine was collected from rats exposed to a single oral dose (3 mg/kg in 1% CMC) of each compound over a 24 hour period in metabolic cages. The pooled urine sample was then subjected to full scan mass spectral analysis, using the same LC-MS conditions as described in example 1 above. Further MS-MS analysis of the product ions was then performed, and likely fragmentations/re-arrangements assigned from the publicly available Metabolite ID database.
For the major metabolites, the assigned structures were confirmed by synthesis of authentic samples, using methods well known in the art, which were subject to LC-MS-MS analysis under the same conditions as the urine samples.
Note that metabolite ID studies provide only qualitative estimates of the relative amounts of the different metabolites present, and separately validated assays with appropriate internal standards would be required to quantitate each metabolite species.
The detected metabolites, in rank order of concentration detected are shown in FIG. 2 for the five compounds analysed. It is important to note that the methodology used here is not necessarily exhaustive, and further (particularly minor) metabolites may also be present which were below the detection limits for the methods applied here. As a general rule, it can be assumed that metabolites representing 10% or more of the injected dose will be detected (though not necessarily structurally identified) by the methods used here).

A short description of data set [2]: Pharmacokinetics following a single dose in rat (LC-MS/MS of blood, one-compartment model). The data set is classed as in vivo. The following applies: for AUC(0-inf): single oral dose 3 mg/kg in 1% CMC, read-out: Exposure (AUC 0->infinity) (converted); for clearance: read-out: Clearance; for bioavailability: po, 3 mg/kg. How it is done: Compounds were administered as a single dose (either 1 mg/kg bodyweight in 5% DMSO via the intravenous route or 3 mg/kg in 1% carboxymethylcellulose via the oral route) to three adult rats (using different rats for each compound and each route of administration).
Blood was then sampled at various time points (including just prior to dose administration) out to 24 hrs post dose, and the level of the various compounds was assessed using a validated LC-MS/MS assay. Briefly, 3-5 μl of the deproteinised sample was applied to a Waters Atlantis (C18 20×2.1 mm, 3 μm bead size) reverse phase chromatography column equilibrated in 0.1% formic acid in 95:5 water:actetonitrile. Over 3.5 minutes bound material was gradient eluted reaching 0.1% formic acid in 5:95 water:acetonitrile, followed by a step gradient back to 0.1% formic acid in 95:5 water:acetonitrile. The column eluent was then directed to an Applied Biosystems API 4000/3200 QTrap MS/MS mass spectrometer, with a Turbolonspray™ ion source operating in positive ion mode. The interface temperature was set at 650° C., with a 40 ms dwell time for each MRM transition, monitoring the following ions:
The internal standard in each determination was the related compound (S)-3-(2′,2′-dimethylpropanoylamino)-caprolactam, which was spiked into the sample prior to deproteinization. The lower limit of quantitation (LLOQ) for this assay was 2.4 ng/ml for each compound except (I′), where it was 38.1 ng/ml.
Following LC-MS/MS analysis of each collected sample, the pharmacokinetic disposition of the compound was modelled using Kinetica software, a well known software package for such applications.

Data set [3] concerns C5a induced neutrophil migration. Kind of data set: ChemoTx transwell migration assay, C5a induced migration of neutrophils (non-chemokine chemoattractant). The format is cell-based. The conditions noted are these: highest concentration tested 1 μM, read-out: ED50 C5a neutrophils. The protocol: In principle, this assay consists of two chambers separated by a porous membrane. The chemoattractant is placed in the lower compartment and the cells are placed in the upper compartment. After incubation for a period at 37° C. the cells move towards the chemoattractant, and the number of cells in the lower compartment is proportional to the chemoattractant activity (relative to a series of controls).
Next, the chemoattractant solution to be placed in the lower compartment is prepared. For example, MCP-1 is diluted in GBSS+BSA to give a final concentration of 25 ng/ml. This is divided into two pots, as for the cell suspension. To one pot, the test compound is added to the same final concentration as was added to the cell suspension, while to the other pot an equal volume of GBSS+BSA plus vehicle as appropriate (e,g. not more than 1% DMSO) is added. Alternatively, other chemokines may be used (SDF-1α at 7.5 ng/ml; RANTES at 50 ng/ml; IL-8 at 10 ng/ml using neutrophils as the target cell population). In each case it is important to determine (in a separate experiment) the concentration of each chemokine which causes maximal stimulation of migration of the chosen target leukocyte population. […]
The number of cells migrated into the lower chamber under each condition can then be determined by a number of methods, including direct counting, labelling with fluorescent or radioactive markers or through the use of a vital dye. […] 3 μl of stock MTT solution are added to each well, and then the plate is incubated at 37° C. for 1-2 hours during which time dehydrogenase enzymes within the cells convert the soluble MTT to an insoluble blue formazan product that can be quantified spectrophotometrically. […]
At the end of this incubation, the liquid is carefully removed from the lower chambers, taking care not to disturb the precipitated formazan product. After allowing to air dry briefly, 20 μl of DMSO is added to each lower chamber to solubilise the blue dye, and absorbance at 595 nm is determined using a 96-well plate reader. […]

Where [4] appears, read: blood, rat, averaged across three rats.
[5] abbreviates: plasma, iv, 1 mg/kg, rat, one-compartment model, averaged across three rats, read-out: t½ (mins) dominant plasma half-life.
Setting [6] is: rat, blood, iv, 1 mg/kg, rat, one-compartment model, averaged across three rats.
The mark [7] stands for this setting: rat, blood, iv, 1 mg/kg, rat, one-compartment model, averaged across three rats, read-out: Vss (L/kg) volume of distribution.
Where [8] appears, read: rat, blood, rat, 1 mg/kg iv in 5% DMSO and 3 mg/kg oral in 1% CMC, one-compartment model, averaged across three rats, read-out: F (%) oral bioavailability.
The mark [9] stands for this setting: blood, Rat, Intravenous PK (1 mg/kg), read-out: Half-life.
The mark [10] stands for this setting: blood, Rat, Oral PK (3 mg/kg), read-out: Half-life.
[11] abbreviates: rat, blood, iv, 1 mg/kg, Rat, Intravenous PK (1 mg/kg).
Where [12] appears, read: rat, blood, iv, 1 mg/kg, Rat, Intravenous PK (1 mg/kg), read-out: Vss.
The mark [13] stands for this setting: rat, blood, Rat, Oral PK (3 mg/kg), read-out: Bioavailability (%).
[14] abbreviates: rat, one-compartment model, averaged across three rats.

SMILES strings stand for the structures. Where two headings read alike, the source gives them in different places.

In the case of `CC(C)(C)S(=O)(=O)N[C@H]1CCCCNC1=O` [(IV), 3-(1′,1′-dimethylethylsulfonylamino)-caprolactam], in data set [1], the “major metabolite / route of metabolism detected in urine” value (“major metabolite / route” for short) is listed as “the major metabolite could not be identified”. Besides, the AUC(0-inf) in data set [2] (setting [4]) is 690 ng·h/mL. Besides, the half-life – broadly, how long it takes for the measured level to halve – in data set [2] (setting [5]) amounted to 19 min. Besides, in data set [2] (setting [6]), the clearance (commonly the rate of elimination divided by the concentration) worked out at 32 mL/min/kg. Besides, the Vd in data set [2] (setting [7]) was 0.6 L/kg. In addition, the bioavailability (usually the share of a dose that reaches the circulation, judged against a reference dose that is usually intravenous) in data set [2] (setting [8]) amounted to 45%.

For `CC(C)(C)C(=O)N[C@H]1CCCNC1=O` [Compound (I′), 3-(2′,2′-dimethylpropanoylamino)-tetrahydropyridin-2-one], the “major metabolite / route” value in data set [1] is “no significant metabolites of (I′) were detected in urine”. For the same molecule, the EC50 in data set [3] is > 1000 nM. The half-life is 196 min in data set [2] (setting [9]); 226 min in data set [2] (setting [10]); > 180 min in data set [2] (plasma, intravenous, 1 mg/kg, rat, read-out: plasma half-life); 196 min in data set [2] (setting [5]). Besides, in data set [2] (blood, Rat, Oral PK (3 mg/kg)), the AUC (in general, concentration integrated over time) was 15600 ng·h/mL. For the same molecule, in data set [2] (blood, Rat, Oral PK (3 mg/kg)), the Tmax (as a rule, the time from dosing to the highest level) lay within 15 to 120 min. In data set [2] (setting [4]), the AUC(0-inf) is 15600 ng·h/mL. Moreover, the “clearance, times lower than for the other lactam BSCIs” value in data set [2] (rat) is reported as “more than 10 fold”. In addition, the clearance in data set [2] (rat, blood, intravenous, 1 mg/kg, rat, one-compartment model, averaged across three rats) worked out at 2.6 mL/min/kg; in data set [2] (setting [11]), 2.6 mL/min/kg. The Vd in data set [2] (setting [12]) and in data set [2] (setting [7]) was 0.7 L/kg throughout. Also, the bioavailability in data set [2] (setting [13]) is 81%; in data set [2] (setting [8]), 69%. For the same molecule, the “exposure relative to the next best compound (V)” value in data set [2] (rat, oral) was ~20 fold. The “plasma half-life, fold longer” value in data set [2] (rat, versus the other compounds examined) is reported as 10 fold.

Take `O=C1NCCCC[C@@H]1NC(=O)C12CC3CC(CC(O)(C3)C1)C2` [(V), 3-(3′-hydroxyadamantyl-1-carbonylamino)-caprolactam]: the “major metabolite / route” value in data set [1] is “the glucuronidated compound was the major metabolite”. Moreover, in data set [3], the EC50 is > 1000 nM. Further, the half-life in data set [2] (setting [9]), in data set [2] (setting [10]) and in data set [2] (setting [5]) was 24 min in each case. This molecule also showed an AUC in data set [2] (blood, Rat, Oral PK (3 mg/kg)) of 952 ng·h/mL. Also, the Tmax in data set [2] (blood, Rat, Oral PK (3 mg/kg)) is 15 min. Besides, in data set [2] (setting [4]), the AUC(0-inf) is 952 ng·h/mL. For the same molecule, the clearance in data set [2] (setting [11]) was 33 mL/min/kg; in data set [2] (setting [6]) it was 31 mL/min/kg. Besides, the Vd worked out at 0.8 L/kg in data set [2] (setting [12]) and 1.4 L/kg in data set [2] (setting [7]). Besides, the bioavailability in data set [2] (setting [13]) and in data set [2] (setting [8]) was 59% each time.

Turning to `O=C1NCCCC[C@@H]1NC(=O)C12CC3CC(CC(C3)C1)C2` [(II), 3-(adamantane-1-carbonylamino)-caprolactam], in data set [1], the “major metabolite / route” value was “cytochrome P450-mediated hydroxylation”. In data set [3], the EC50 is > 1000 nM. Further, the AUC(0-inf) in data set [2] (setting [4]) was 7.95 ng·h/mL. Moreover, the “F (%) oral bioavailability” value in data set [2] (rat, 1 mg/kg iv in 5% DMSO and 3 mg/kg oral in 1% CMC, one-compartment model, averaged across three rats) was <1%. Moreover, the clearance in data set [2] (setting [6]) was 84 mL/min/kg. In data set [2] (setting [14]), the “Vss (L/kg) volume of distribution” value worked out at 0.8 L/kg and the “t½ (mins) dominant plasma half-life” value came out at 16 min.
